According to US12421242B2, “Substituted tetrahydropyrrolo-pyridinone compounds and their use in treating medical conditions” (Karuna Therapeutics, Inc., priority 2022, dated 2025):

Target: T1, human M4 receptor (Homo sapiens, UniProt P08173)
T1 construct: expressed in transfected cells
T1 sequence (P08173 1-479): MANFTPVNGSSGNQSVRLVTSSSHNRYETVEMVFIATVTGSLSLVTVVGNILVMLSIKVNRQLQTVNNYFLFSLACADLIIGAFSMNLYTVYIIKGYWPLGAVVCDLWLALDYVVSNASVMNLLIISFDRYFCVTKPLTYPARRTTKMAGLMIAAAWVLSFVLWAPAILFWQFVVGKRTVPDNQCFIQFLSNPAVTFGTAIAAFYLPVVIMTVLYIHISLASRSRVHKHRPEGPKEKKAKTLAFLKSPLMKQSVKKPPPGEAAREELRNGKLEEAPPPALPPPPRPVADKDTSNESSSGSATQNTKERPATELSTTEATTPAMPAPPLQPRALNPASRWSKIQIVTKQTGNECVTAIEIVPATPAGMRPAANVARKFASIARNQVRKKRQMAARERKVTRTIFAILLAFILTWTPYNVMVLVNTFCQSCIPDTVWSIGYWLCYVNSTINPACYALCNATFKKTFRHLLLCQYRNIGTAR
Test: M4 GTPγS PAM assay
Type: biochemical
Details: CHO-K1 membranes expressing human M4, with EC20 acetylcholine (40 nM)
In short: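 Membranes from CHO-K1 cells stably expressing human M4 preincubated 10-15 min with compound in HEPES/MgCl2/NaCl buffer with 0.1 µM GDP, then with EC20 acetylcholine (40 nM) for 10-15 min. [35S]GTPγS added for 1 h at room temperature; filter-bound radioactivity counted by scintillation.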

`COc1c2c(n(C)c(=O)c1C)CN(C(=O)c1cnn(C(F)(F)F)c1)C2` [Compound I-87] showed an EC50 of 0.1 to 0.5 µM.
In the case of `Cc1c2c(n(C)c(=O)c1Cl)CN(C(=O)c1cnn(C(F)(F)F)c1)C2` [Compound I-1, 3-chloro-1,4-dimethyl-6-(1-(Trifluoromethyl)-1H-pyrazole-4-carbonyl)-1,5,6,7-tetrahydro-2H-pyrrolo[3,4-b]pyridin-2-one], the EC50 is reported as 0.1 to 0.5 µM.
For `Cc1c2c(n(C)c(=O)c1Cl)CN(C(=O)c1cnn(C(F)(F)F)c1)[C@@H]2C` [Compound I-76, (R)-3-Chloro-1,4,5-trimethyl-6-(1-(trifluoromethyl)-1H-pyrazole-4-carbonyl)-1,5,6,7-tetrahydro-2H-pyrrolo[3,4-b]pyridin-2-one], the EC50 was under 0.1 µM.
